In publication PMC10848157, “Assessing NH300094, a novel dopamine and serotonin receptor modulator with cognitive enhancement property for treating schizophrenia” (Frontiers in Pharmacology, 2024):

Experiments:
male ICR mice [1] = experiment: APO-induced climbing in mice
D2L receptor = D2L receptor (Homo sapiens, UniProt P14416); experiment: D2L receptor functional assay (cAMP assay, antagonist); type: cell-based; details: antagonist activity, CHO-K1/D2 cells, read-out: D2LR, IC50
5-HT2A receptor = 5-HT2A receptor (Homo sapiens, UniProt P28223); experiment: 5-HT2A receptor functional assay (calcium flow, FLIPR, antagonist); type: cell-based
Sequence of 5-HT2A receptor (P28223 whole entry): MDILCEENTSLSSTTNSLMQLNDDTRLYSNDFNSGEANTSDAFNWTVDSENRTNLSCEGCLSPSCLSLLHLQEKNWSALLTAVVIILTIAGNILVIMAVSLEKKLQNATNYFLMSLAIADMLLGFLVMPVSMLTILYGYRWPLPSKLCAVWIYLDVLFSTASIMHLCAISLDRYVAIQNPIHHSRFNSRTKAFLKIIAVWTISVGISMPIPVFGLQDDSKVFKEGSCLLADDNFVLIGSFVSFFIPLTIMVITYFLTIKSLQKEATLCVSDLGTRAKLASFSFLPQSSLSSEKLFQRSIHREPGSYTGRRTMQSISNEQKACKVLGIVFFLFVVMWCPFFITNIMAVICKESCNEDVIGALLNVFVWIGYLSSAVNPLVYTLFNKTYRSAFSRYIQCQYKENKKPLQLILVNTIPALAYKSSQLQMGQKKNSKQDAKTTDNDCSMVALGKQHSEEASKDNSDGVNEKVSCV

male Wistar rats = experiment: Conditioned avoidance response test in rats; type: in vivo; details: Rattus norvegicus, single oral dose, read-out: ED50, inhibition of conditioned avoidance response
Description: Shuttle-box Avoidance Test Video Analysis System (DigBehv-SBG, Shanghai Jiliang Software Technology Co. Ltd.) were used to assess the rats conditioned avoidance response.
Phase I: The rats responded to the conditioned stimulus (auditory and visual) by training with foot shock reinforcement. Briefly, rats were placed into the CAR shuttle boxes for a 5-min habituation followed by 30 trials presented on a 20-s variable interval (20–30 s) stimulus. Each rats were subjected to a conditioned stimulus which consisted of 10s presentation of light and white noise, and then followed by a scrambled 1.5 mA foot shock for 10 s. […] Rats with avoidance rates greater than 70% for 3 consecutive days were included in this study post-training.
Phase II: The qualified rats were randomly divided into 7 groups. […] The procedure in the testing phase was the same as the Phase I described. The number of avoidances, escapes, and escape failures were recorded.

male ICR mice [2] = details: p.o.
5-HT1A receptor = molecular target: T1, 5-HT1A receptor (Homo sapiens, UniProt P08908); experiment: 5-HT1A receptor functional assay (cAMP assay, antagonist); type: cell-based; details: antagonist activity, CHO-K1/5-HT1A cells, read-out: 5HT1AR, IC50
T1 sequence (P08908 1-422): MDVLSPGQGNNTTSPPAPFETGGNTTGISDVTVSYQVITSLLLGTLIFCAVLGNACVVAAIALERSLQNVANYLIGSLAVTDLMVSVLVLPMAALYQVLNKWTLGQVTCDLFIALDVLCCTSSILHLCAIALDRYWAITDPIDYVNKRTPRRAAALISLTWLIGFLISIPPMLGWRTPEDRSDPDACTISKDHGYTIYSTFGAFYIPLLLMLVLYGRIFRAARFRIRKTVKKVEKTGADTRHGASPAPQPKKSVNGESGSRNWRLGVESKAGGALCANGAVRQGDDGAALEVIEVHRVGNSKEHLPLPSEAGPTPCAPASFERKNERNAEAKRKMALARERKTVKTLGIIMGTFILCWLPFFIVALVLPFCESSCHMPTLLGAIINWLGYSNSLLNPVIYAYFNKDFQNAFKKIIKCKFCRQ

M1 receptor = molecular target: T2, M1 receptor (Homo sapiens, UniProt P11229); experiment: M1 receptor functional assay (calcium flow, FLIPR); type: cell-based; details: CHO-K1/M1 cells, read-out: M1R, IC50
T2 sequence (P11229 1-460): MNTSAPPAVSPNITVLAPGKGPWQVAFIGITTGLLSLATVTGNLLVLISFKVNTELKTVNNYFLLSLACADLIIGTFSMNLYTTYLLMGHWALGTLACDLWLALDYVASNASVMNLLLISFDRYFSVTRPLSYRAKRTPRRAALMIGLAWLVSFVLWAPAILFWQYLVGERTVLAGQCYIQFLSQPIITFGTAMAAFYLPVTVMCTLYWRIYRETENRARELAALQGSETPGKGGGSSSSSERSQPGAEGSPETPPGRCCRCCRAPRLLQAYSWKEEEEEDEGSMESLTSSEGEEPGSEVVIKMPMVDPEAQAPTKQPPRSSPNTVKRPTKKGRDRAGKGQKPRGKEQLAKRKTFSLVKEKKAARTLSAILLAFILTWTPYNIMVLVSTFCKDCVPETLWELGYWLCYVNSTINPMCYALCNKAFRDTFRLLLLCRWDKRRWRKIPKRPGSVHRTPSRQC

male ICR mice [3] = experiment: Forced swimming test in mice; type: in vivo; details: single oral dose; NH300094 0.03 mg/kg; risperidone 0.01, 0.03 and 0.1 mg/kg
Procedure: Each mouse was required to swim in an open cylindrical container (height of 25 cm, diameter of 10 cm) after intragastric administration of compounds 1 h. The container contained 1.2 L of water with temperature maintained at 24°C ± 1°C. The test used a computerized analysis and tracking system (Clever Sys Inc., Leesburg, VA) to recorded the duration of immobility (last 4 min of a total time of 6 min) about the testing mice.

5-HT2C receptor = molecular target: T3, 5-HT2C receptor (Homo sapiens, UniProt P28335); experiment: 5-HT2C receptor functional assay (calcium flow, FLIPR); type: cell-based; details: HEK293/5-HT2C cells, read-out: 5HT2cR, IC50
T3 sequence (P28335 33-458): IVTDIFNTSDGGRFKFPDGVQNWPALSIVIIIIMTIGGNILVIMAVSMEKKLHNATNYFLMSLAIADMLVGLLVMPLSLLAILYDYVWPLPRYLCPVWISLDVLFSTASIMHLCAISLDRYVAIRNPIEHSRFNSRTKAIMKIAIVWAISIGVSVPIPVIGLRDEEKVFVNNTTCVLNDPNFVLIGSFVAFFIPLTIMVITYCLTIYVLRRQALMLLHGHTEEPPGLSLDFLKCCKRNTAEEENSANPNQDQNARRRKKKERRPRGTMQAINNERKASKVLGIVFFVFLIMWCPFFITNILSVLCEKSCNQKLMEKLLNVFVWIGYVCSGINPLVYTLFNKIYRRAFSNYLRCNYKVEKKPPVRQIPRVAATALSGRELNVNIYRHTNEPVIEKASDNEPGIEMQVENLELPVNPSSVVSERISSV

5-HT1B receptor = 5-HT1B receptor (Homo sapiens, UniProt P28222); experiment: 5-HT1B receptor functional assay (cAMP assay, inverse agonist); type: cell-based; details: inverse agonist activity, CHO-K1/5-HT1B cells, read-out: 5HT1BR, EC50
Sequence of 5-HT1B receptor (P28222 whole entry): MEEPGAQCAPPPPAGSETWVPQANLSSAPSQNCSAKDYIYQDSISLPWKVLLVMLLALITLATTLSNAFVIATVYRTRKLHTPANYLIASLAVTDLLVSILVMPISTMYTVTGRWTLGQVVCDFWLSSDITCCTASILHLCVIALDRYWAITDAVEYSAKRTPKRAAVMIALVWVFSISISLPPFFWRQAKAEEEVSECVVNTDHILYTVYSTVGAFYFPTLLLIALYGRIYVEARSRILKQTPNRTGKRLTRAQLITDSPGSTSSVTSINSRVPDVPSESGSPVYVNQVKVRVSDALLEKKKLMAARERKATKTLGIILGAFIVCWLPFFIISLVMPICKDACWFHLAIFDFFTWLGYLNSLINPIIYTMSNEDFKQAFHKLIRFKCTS

male ICR mice [4] = experiment: MK-801-induced hyperactivity in mice; type: in vivo; details: single oral dose
Procedure: Immediately after injection with either saline or MK-801 (0.3 mg/kg, i.p.), the mice were placed into the test chambers (29 cm × 29 cm × 30 cm) for 60 min of locomotion recording using a tracking and computerized analysis system (TopScan Version 3.00, Clever Sys Inc., Leesburg, VA).

Sequence of D2L receptor (P14416 whole entry): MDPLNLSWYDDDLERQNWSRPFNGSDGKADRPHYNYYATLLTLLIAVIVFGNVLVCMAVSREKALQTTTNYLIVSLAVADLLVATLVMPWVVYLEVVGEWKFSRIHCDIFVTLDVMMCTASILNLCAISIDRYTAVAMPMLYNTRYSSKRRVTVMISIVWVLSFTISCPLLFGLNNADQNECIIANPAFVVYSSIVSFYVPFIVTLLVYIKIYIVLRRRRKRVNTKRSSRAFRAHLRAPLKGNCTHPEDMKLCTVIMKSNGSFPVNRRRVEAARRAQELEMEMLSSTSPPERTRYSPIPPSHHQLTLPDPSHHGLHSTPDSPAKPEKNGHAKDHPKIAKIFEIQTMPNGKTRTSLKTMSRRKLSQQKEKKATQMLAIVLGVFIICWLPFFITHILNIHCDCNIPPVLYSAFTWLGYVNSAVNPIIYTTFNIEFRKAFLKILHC

In the case of `O=C1CCc2cc(OCCCN3CCC(c4noc5cc(F)ccc45)CC3)cc3c2N1CC3` [NH300094, 8-(3-(4-(6-fluorobenzo [d]isoxazol-3-yl)piperidin-1-yl)propoxy)-1,2,5,6-tetrahydro-4H-pyrrolo [3,2,1-ij] quinolin-4-one], the ED50 (male ICR mice [1]; Mus musculus, read-out: ED50, inhibition of APO-induced climbing) is reported as about 0.29 mg/kg, the “MED, APO-induced climbing” value (male ICR mice [1]; single oral dose, male ICR mice) is reported as 0.3 mg/kg and the IC50 (D2L receptor) is reported as 0.00104 ± 0.00059 µM. For the same compound, the “antagonistic activities ratio of 5-HT2AR and D2R (IC50 ratio)” value (5-HT2A receptor; IC50 5-HT2AR / IC50 D2R) was 0.45, the IC50 (5-HT2A receptor; antagonist activity, calcium flow FLIPR, CHO-K1/5-HT2A cells, read-out: 5HT2AR, IC50) was 0.00047 ± 0.00079 µM and the ED50 (male Wistar rats) was about 1.02 mg/kg. For the same compound, the “minimal dose that induced catalepsy” value (male ICR mice [2]) was 3 mg/kg, the IC50 (5-HT1A receptor) was 0.0856 ± 0.0615 µM and the IC50 (M1 receptor) was 3.52 µM. The “effect on immobility time in the FST” value (male ICR mice [3]) was “decreased immobility time”, the IC50 (5-HT2C receptor) was 3.02 µM and the EC50 (5-HT1B receptor) was 0.0284 ± 0.0125 µM. The ED50 (male ICR mice [4]; Mus musculus, MK-801 0.3 mg/kg i.p., read-out: ED50, inhibition of MK-801-induced hyperactivity) was about 0.07 mg/kg and the “Minimum effective dose (MED), MK-801-induced hyperactivity” value (male ICR mice [4]) was 0.03 mg/kg.
